Reference: the supplement of paper PMC10307832

Assays:
Experiment in all cases: relative viability (nuclei count vs DMSO), 5 days (fraction); higher = more cells survive
IMD-0354 + Bortezomib = compound: O=C(Nc1cc(C(F)(F)F)cc(C(F)(F)F)c1)c1cc(Cl)ccc1O [IMD-0354] + CC(C)C[C@H](NC(=O)[C@H](Cc1ccccc1)NC(=O)c1cnccn1)B(O)O [Bortezomib] (partner 0.002 µM)
In short: (§1)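 Lung cancer cell lines were seeded in 1536-well plates and dosed by pin tool the next day, with either a single drug or a fixed anchor-drug dose combined with five library-drug doses (not always all listed) spaced in √10 steps. Five days later, one step fixed the cells and stained their nuclei (final 0.05% Triton X-100, 1% formaldehyde, 1 ug/ml Hoechst), and nuclei were counted on 4× images. Relative viability is the nuclei count in treated wells divided by the count in vehicle wells, and each value is the median of duplicate plates.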

IMD-0354 + Palbociclib = compound: O=C(Nc1cc(C(F)(F)F)cc(C(F)(F)F)c1)c1cc(Cl)ccc1O [IMD-0354] + CC(=O)c1c(C)c2cnc(Nc3ccc(N4CCNCC4)cn3)nc2n(C2CCCC2)c1=O [Palbociclib] (partner 0.5 µM)
In short: as §1

IMD-0354 + AZD7762 = compound: O=C(Nc1cc(C(F)(F)F)cc(C(F)(F)F)c1)c1cc(Cl)ccc1O [IMD-0354] + NC(=O)Nc1cc(-c2cccc(F)c2)sc1C(=O)N[C@H]1CCCNC1 [AZD7762] (partner 0.2 µM)
In short: as §1

CX-5461 + Alpelisib = compound: Cc1cnc(CNC(=O)c2c(=O)c3ccc(N4CCCN(C)CC4)nc3n3c2sc2ccccc23)cn1 [CX-5461] + Cc1nc(NC(=O)N2CCC[C@H]2C(N)=O)sc1-c1ccnc(C(C)(C)C(F)(F)F)c1 [Alpelisib] (partner 2 µM)
In short: as §1

Row | Cell Line | relative viability (IMD-0354 + Bortezomib; first compound 0.04 µM) | relative viability (IMD-0354 + Bortezomib; first compound 0.1265 µM) | relative viability (IMD-0354 + Bortezomib; first compound 0.4 µM) | relative viability (IMD-0354 + Bortezomib; first compound 1.265 µM) | relative viability (IMD-0354 + Bortezomib; first compound 4 µM) | relative viability (IMD-0354 + Palbociclib; first compound 0.04 µM) | relative viability (IMD-0354 + Palbociclib; first compound 0.1265 µM) | relative viability (IMD-0354 + Palbociclib; first compound 0.4 µM) | relative viability (IMD-0354 + Palbociclib; first compound 1.265 µM) | relative viability (IMD-0354 + Palbociclib; first compound 4 µM) | relative viability (IMD-0354 + AZD7762; first compound 0.04 µM) | relative viability (IMD-0354 + AZD7762; first compound 0.1265 µM) | relative viability (IMD-0354 + AZD7762; first compound 0.4 µM) | relative viability (IMD-0354 + AZD7762; first compound 1.265 µM) | relative viability (IMD-0354 + AZD7762; first compound 4 µM) | relative viability (CX-5461 + Alpelisib; first compound 0.01 µM) | relative viability (CX-5461 + Alpelisib; first compound 0.03162 µM) | relative viability (CX-5461 + Alpelisib; first compound 0.1 µM) | relative viability (CX-5461 + Alpelisib; first compound 0.3162 µM) | relative viability (CX-5461 + Alpelisib; first compound 1 µM)
1 | NCI-H727 | 0.841 | 0.923 | 0.532 | 0.38 | 0.359 | 0.502 | 0.582 | 0.667 | 0.709 | 0.455 | 0.589 | 0.727 | 0.484 | 0.44 | 0.398 | 0.606 | 0.597 | 0.547 | 0.611 | 0.592
2 | NCI-H1355 | 1.42 | 1.24 | 0.833 | 0.224 | 0.256 | 0.385 | 0.41 | 0.378 | 0.195 | 0.253 | 0.813 | 0.914 | 0.622 | 0.494 | 0.23 | 0.867 | 0.82 | 0.928 | 0.758 | 0.878
3 | HOP-62 | 0.954 | 0.836 | 0.661 | 0.227 | 0.0871 | 0.454 | 0.39 | 0.299 | 0.266 | 0.0933 | 0.741 | 0.977 | 0.473 | 0.327 | 0.176 | 1.12 | 1.09 | 1 | 1.35 | 1.05
4 | NCI-H2085 | 1.03 | 1.09 | 0.757 | 0.491 | 0.386 | 0.461 | 0.439 | 0.433 | 0.281 | 0.393 | 1.18 | 1.12 | 0.754 | 0.324 | 0.359 | 0.965 | 0.935 | 0.96 | 1.02 | 0.853
